From patent publication US10364247B2, “Preparation and use of novel protein kinase inhibitors” (Ruijin Hospital Affiliated to Shanghai Jiao Tong University …, priority 2015, dated 2019) come the findings set out here.

Assay type in all cases: cell-based, murine
The subject of one assay is Wt-BaF3. The assay can be described thus: Parental Ba/F3 cell proliferation (CellTiter Glo). Conditions: Mus musculus, parental BaF/3 cells, 48 hours. The procedure: (§1) The murine cell line used is the BaF/3 cell line transformed with BCR/ABL cDNA (BaF/3-p210) or BCR/ABL-T315I mutant (Ba/F3-p210-T315I). These cells are maintained in RPMI/10% fetal calf serum (RPMI/FCS) supplemented with penicillin 50 μg/mL, streptomycin 50 μg/mL and L-glutamine […]. Untransformed BaF/3 cells (Wt-BaF/3) are similarly maintained with the addition of 15% of WEHI conditioned medium as a source of IL3.
(§2) The BaF/3 cell line transformed with oncogenic NRAS or KRAS (BaF/3-NRASD12 or BaF/3-KRASD12) and the parental BaF/3 cells were used to measure the abilities of compounds of the invention to suppress RAS transformation (Table 5). Cells were seeded at a density of 5000 cells/well into 96-well plates. […] The background control wells to which media with no cells added and the vehicle control wells were included on each plate in triplicate. Cell viability was determined using CellTiter Glo Assay (Promega) according to manufacture's instruction with a minor modification of diluting 1 part CellTiter Glo reagent to 4 parts phosphate buffered saline (PBS) before use. The luminescence value was read out by an Envision (PerkinElmer).

The next assay has as its target T1, BaF3-BCR/ABL (Homo sapiens, UniProt P00519).
T1 construct: fused on or other part: P11274 (Breakpoint cluster region protein)
The assay can be described thus: Antiproliferative activity, kinase-dependent Ba/F3 cells (MTT/MTS). The note with it: 48 hours, cell viability, read-out: BCR/ABL IC50. As for the experimental part:
(§3) Following up on the kinome data, the ability of compounds disclosed in the present invention to inhibit proliferation of cells that are dependent on selected protein kinases was tested. […] In addition, compounds were assayed to measure their capacity to inhibit TIE1, LYN, EML4-ALK, INSR and HCK kinases.
as §1
(§4) Cells were seeded at a density of 20,000 cells/well into 96-well plates.
(§5) The background control wells to which media with no cells added and the vehicle control wells were included on each plate in triplicate. Cell viability was determined using MTT (Sigma, St. Louis, Mo., USA) and MTS (Promega, Madison, Wis., USA), according to the manufacturer's instructions. Results were analyzed using GraphPad Prism 5.0 (GraphPad Software, San Diego, Calif.) and IC50 values were calculated from cell viability dose-response curves and defined as the concentration of compound needed to reduce cell viability to 50% of a vehicle control (DMSO) (Table 3).

The next assay has as its target T2, BaF3-BCR/ABL-T315I (Homo sapiens, UniProt P00519, T315I, cells depend on it).
T2 construct: fused on or other part: P11274 (Breakpoint cluster region protein)
The assay is described as above. Conditions: 48 hours, cell viability, read-out: BCR/ABL T315I IC50. As for the experimental part:
as §3, §1, §4, §5

The target of a further assay is T3, BaF3-TEL-TIE1 (Homo sapiens, UniProt P35590).
T3 construct: fused on or other part: P41212 (Transcription factor ETV6)
Described as above. Conditions: 48 hours, cell viability, read-out: tel-TIE1 IC50. The procedure: as §3, §1, §4, §5
(§6) Cell proliferation assays of compounds of the invention against TIE1, LYN, EML4-ALK, INSR and Hck were conducted using identical methods as described above for BCR/ABL, except that BaF3-TEL-TIE1, BaF3-TEL-LYN, BaF3-EML4-ALK, BaF3-TEL-INSR, and BaF3-TEL-HCK are used instead of BaF3-BCR/ABL (Table 3 and 4).

For the next assay, the target named is T4, BaF3-TEL-LYN (Homo sapiens, UniProt P07948).
T4 construct: fused on or other part: P41212 (Transcription factor ETV6)
The description is as above. Conditions: 48 hours, cell viability, read-out: tel-LYN IC50. As for the experimental part: as §3, §1, §4, §5, §6

For the next assay, the target named is T5, BaF3-EML4-ALK (Homo sapiens, UniProt Q9UM73).
T5 construct: fused on or other part: Q9HC35 (Echinoderm microtubule-associated protein-like 4)
The assay is described as above. Conditions: 48 hours, cell viability, read-out: EML4-ALK IC50. As for the experimental part: as §3, §1, §4, §5, §6

For another assay, the system named is BaF3-NRASD12. Briefly: Oncogenic RAS dependent cell proliferation (CellTiter Glo). The note with it: Mus musculus, BaF3-NRASD12 cells, 48 hours, read-out: NRas-BaF3 IC50. The procedure: as §2
The subject of a further assay is BaF3-KRASD12. The description is as above. Conditions: Mus musculus, BaF3-KRASD12 cells, 48 hours, read-out: KRas-BaF3 IC50. As for the experimental part: as §2

T5 sequence (Q9UM73 whole entry, change not shown, the tested form may be a part): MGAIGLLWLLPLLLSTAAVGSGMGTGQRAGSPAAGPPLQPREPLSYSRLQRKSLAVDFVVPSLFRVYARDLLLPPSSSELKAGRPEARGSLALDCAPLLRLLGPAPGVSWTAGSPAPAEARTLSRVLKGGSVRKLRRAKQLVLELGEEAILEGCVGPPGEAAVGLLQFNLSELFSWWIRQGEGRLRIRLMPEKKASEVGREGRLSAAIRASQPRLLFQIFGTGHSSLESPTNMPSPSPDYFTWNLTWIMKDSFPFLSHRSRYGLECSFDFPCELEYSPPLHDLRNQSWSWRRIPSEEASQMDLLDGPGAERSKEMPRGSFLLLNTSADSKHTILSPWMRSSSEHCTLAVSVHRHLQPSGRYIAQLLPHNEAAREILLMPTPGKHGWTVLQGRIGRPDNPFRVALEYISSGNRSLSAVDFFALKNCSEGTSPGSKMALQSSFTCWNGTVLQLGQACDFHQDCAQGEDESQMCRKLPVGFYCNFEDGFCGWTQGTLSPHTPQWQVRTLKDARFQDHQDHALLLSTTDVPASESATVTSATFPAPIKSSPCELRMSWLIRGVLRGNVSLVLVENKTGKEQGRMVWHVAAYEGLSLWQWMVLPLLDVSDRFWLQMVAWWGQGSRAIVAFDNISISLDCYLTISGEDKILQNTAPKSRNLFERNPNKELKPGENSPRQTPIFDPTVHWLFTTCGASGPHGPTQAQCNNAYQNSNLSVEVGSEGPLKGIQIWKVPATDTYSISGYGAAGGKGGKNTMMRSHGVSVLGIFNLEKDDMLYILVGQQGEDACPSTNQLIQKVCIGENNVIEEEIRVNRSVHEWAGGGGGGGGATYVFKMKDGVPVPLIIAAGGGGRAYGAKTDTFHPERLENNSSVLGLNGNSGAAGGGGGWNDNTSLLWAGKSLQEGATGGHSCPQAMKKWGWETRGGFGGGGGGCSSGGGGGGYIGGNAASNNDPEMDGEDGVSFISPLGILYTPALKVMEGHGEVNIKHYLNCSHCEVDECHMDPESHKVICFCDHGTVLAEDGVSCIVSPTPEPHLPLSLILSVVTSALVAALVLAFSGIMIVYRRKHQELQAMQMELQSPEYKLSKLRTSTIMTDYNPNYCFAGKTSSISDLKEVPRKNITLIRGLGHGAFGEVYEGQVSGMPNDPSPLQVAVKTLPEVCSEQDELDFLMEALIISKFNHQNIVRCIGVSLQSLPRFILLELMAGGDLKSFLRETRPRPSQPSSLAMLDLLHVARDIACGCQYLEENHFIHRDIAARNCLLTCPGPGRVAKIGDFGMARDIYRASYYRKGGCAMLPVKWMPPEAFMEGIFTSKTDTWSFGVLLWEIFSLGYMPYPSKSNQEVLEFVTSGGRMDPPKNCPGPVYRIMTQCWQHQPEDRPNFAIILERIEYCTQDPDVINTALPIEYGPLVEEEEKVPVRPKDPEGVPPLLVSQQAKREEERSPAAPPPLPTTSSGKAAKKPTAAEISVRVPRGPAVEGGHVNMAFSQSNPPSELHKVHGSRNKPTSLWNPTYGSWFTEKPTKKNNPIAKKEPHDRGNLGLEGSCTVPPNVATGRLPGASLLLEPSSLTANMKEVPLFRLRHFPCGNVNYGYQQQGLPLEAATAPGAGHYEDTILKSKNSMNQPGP
T3 sequence (P35590 whole entry, change not shown, the tested form may be a part): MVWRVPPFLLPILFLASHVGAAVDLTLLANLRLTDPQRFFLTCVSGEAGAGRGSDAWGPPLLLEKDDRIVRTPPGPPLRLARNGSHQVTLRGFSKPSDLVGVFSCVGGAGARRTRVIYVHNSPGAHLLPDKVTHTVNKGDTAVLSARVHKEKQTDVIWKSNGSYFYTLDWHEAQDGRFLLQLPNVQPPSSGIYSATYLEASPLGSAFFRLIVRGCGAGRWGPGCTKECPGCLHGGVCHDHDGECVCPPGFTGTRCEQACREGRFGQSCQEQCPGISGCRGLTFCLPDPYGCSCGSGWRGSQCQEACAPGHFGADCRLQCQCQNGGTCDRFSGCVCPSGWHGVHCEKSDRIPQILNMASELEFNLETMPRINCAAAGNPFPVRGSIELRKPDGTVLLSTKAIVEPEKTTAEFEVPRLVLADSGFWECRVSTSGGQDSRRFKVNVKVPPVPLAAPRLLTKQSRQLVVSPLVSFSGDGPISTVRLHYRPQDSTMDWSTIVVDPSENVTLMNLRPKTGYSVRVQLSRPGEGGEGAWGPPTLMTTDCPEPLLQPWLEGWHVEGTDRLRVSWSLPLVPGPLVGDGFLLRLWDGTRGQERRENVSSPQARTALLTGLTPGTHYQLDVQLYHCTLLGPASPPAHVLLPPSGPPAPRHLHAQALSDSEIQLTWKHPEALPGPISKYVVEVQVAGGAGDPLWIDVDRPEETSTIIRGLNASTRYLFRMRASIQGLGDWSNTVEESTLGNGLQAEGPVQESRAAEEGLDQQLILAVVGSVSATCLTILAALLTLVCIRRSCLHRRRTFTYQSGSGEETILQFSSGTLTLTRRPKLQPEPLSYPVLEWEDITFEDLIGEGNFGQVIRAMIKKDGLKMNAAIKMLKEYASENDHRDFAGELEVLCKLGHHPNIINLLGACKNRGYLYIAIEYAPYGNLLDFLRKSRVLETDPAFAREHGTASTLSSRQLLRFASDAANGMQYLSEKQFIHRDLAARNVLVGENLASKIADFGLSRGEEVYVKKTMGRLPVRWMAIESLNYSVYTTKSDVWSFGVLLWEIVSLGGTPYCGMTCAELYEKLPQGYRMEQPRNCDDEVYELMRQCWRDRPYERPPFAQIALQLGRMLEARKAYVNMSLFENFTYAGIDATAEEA
T4 sequence (P07948 whole entry, change not shown, the tested form may be a part): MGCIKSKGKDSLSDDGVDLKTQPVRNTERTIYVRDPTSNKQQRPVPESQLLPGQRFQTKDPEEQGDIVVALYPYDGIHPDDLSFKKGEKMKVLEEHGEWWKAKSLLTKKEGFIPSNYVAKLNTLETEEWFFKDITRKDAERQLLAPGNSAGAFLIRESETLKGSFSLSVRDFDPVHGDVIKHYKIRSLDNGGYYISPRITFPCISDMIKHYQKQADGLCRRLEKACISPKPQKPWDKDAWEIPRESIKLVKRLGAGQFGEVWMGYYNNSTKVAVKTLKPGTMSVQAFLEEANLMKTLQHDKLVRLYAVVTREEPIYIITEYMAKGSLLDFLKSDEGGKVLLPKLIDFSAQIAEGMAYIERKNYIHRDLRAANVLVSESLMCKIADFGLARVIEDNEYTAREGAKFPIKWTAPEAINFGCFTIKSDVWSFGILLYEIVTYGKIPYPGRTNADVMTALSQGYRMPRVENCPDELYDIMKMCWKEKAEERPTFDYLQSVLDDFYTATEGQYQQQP

With `CONC(=O)c1ccc(C)c(N2Cc3cnc(Nc4ccc(C)nc4)nc3N(C)C2)c1` [IC-4, N-methoxy-4-methyl-3-(1-methyl-7-((6-methylpyridin-3-yl)amino)-1,4-dihydropyrimido[4,5-d]pyrimidin-3(2H)-yl)benzamide], the IC50 in the assay with Wt-BaF3, with BaF3-NRASD12 and in the assay with BaF3-KRASD12 was over 10 µM throughout. The GI50 at BaF3-BCR/ABL was 0.0631 µM; at BaF3-BCR/ABL-T315I, over 10 µM; at BaF3-TEL-TIE1, over 10 µM; on BaF3-TEL-LYN, over 10 µM; at BaF3-EML4-ALK, over 10 µM.
As for `Cc1ccc(NC(=O)c2cccc(C(F)(F)F)c2)cc1N1Cc2cnc(N[C@@H](C)CO)nc2N(C)C1` [IA-8, (S)—N-(3-(7-((1-hydroxypropan-2-yl)amino)-1-methyl-1,4-dihydropyrimido[4,5-d]pyrimidin-3(2H)-yl)-4-methylphenyl)-3-(trifluoromethyl)benzamide], the IC50 in the assay with Wt-BaF3 turned out to be 17.9 µM; in the assay with BaF3-NRASD12 it was 5.21 µM; with BaF3-KRASD12, 7.57 µM. Also, the GI50 at BaF3-BCR/ABL was 1.94 µM; at BaF3-BCR/ABL-T315I, over 10 µM; on BaF3-TEL-TIE1 it was 3.65 µM; on BaF3-TEL-LYN, 2.5 µM; on BaF3-EML4-ALK it was 9.22 µM.
As to `Cc1ccc(NC(=O)c2cccc(C(F)(F)F)c2)cc1N1Cc2cnc(NC3CCN(C)CC3)nc2N(C)C1` [IA-1, N-(4-methyl-3-(1-methyl-7-((1-methylpiperidin-4-yl)amino)-1,4-dihydropyrimido[4,5-d]pyrimidin-3(2H)-yl)phenyl)-3-(trifluoromethyl)benzamide], the IC50 was found to be 8.83 µM in the assay on Wt-BaF3, 5.22 µM in the assay on BaF3-NRASD12 and 10.1 µM with BaF3-KRASD12. In addition, the GI50 at BaF3-BCR/ABL is 4.28 µM; at BaF3-BCR/ABL-T315I, 4.15 µM; at BaF3-TEL-TIE1 it was 1.75 µM; at BaF3-TEL-LYN it was about 2.79 µM; on BaF3-EML4-ALK it was 1.53 µM.
In the case of `Cc1ccc(NC(=O)c2cccc(C(F)(F)F)c2)cc1N1Cc2cnc(N[C@H](C)CO)nc2N(C)C1` [IA-7, (R)—N-(3-(7-((1-hydroxypropan-2-yl)amino)-1-methyl-1,4-dihydropyrimido[4,5-d]pyrimidin-3(2H)-yl)-4-methylphenyl)-3-(trifluoromethyl)benzamide], the IC50 is 24.4 µM with Wt-BaF3, 8.28 µM with BaF3-NRASD12 and 8.1 µM in the assay on BaF3-KRASD12. For the same compound, the GI50 was 0.665 µM at BaF3-BCR/ABL; over 10 µM at BaF3-BCR/ABL-T315I; 4.22 µM on BaF3-TEL-TIE1; 4.48 µM at BaF3-TEL-LYN; 7.47 µM on BaF3-EML4-ALK.
Consider `Cc1ccc(Nc2ncc3c(n2)N(C)CN(c2cc(C(=O)Nc4cccc(C(F)(F)F)c4)ccc2C)C3)cn1` [IC-1, 4-methyl-3-(1-methyl-7-((6-methylpyridin-3-yl)amino)-1,4-dihydropyrimido[4,5-d]pyrimidin-3(2H)-yl)-N-(3-(trifluoromethyl)phenyl)benzamide], for which the IC50 with Wt-BaF3 amounted to 5.36 µM; in the assay on BaF3-NRASD12 it was 1.57 µM; in the assay with BaF3-KRASD12 it was 1.69 µM. Moreover, the GI50 on BaF3-BCR/ABL stood at 0.00693 µM; on BaF3-BCR/ABL-T315I, 0.196 µM; at BaF3-TEL-TIE1, 0.0912 µM; on BaF3-TEL-LYN, 0.189 µM; on BaF3-EML4-ALK it was 1.65 µM.
`Cc1ccc(Nc2ncc3c(n2)N(C)CN(c2cc(C(=O)NCCN4CCOCC4)ccc2C)C3)cn1` [IC-3, 4-methyl-3-(1-methyl-7-((6-methylpyridin-3-yl)amino)-1,4-dihydropyrimido[4,5-d]pyrimidin-3(2H)-yl)-N-(2-morpholinoethyl)benzamide]: the IC50 in the assay with Wt-BaF3, in the assay on BaF3-NRASD12 and with BaF3-KRASD12 was over 10 µM throughout. Besides, the GI50 is 0.217 µM at BaF3-BCR/ABL; over 10 µM at BaF3-BCR/ABL-T315I; over 10 µM at BaF3-TEL-TIE1; over 10 µM on BaF3-TEL-LYN; over 10 µM on BaF3-EML4-ALK.
In the case of `Cc1ccc(Nc2ncc3c(n2)N(C)CN(c2cccc(NC(=O)c4cccc(C(F)(F)F)c4)c2)C3)cn1` [IC-5, N-(3-(1-methyl-7-((6-methylpyridin-3-yl)amino)-1,4-dihydropyrimido[4,5-d]pyrimidin-3(2H)-yl)phenyl)-3-(trifluoromethyl)benzamide], the 50% inhibitory concentration (IC50) was 29.3 µM with Wt-BaF3, over 10 µM in the assay with BaF3-NRASD12 and over 10 µM in the assay on BaF3-KRASD12. Further, the GI50 at BaF3-BCR/ABL is 0.94 µM; on BaF3-BCR/ABL-T315I, over 10 µM; at BaF3-TEL-TIE1 it was 9.29 µM; on BaF3-TEL-LYN it was over 10 µM; on BaF3-EML4-ALK, over 10 µM.
For `Cc1ccc(NC(=O)c2cccc(C(F)(F)F)c2)cc1N1Cc2cnc(NCCN3CCOCC3)nc2N(C)C1` [IA-5, N-(4-methyl-3-(1-methyl-7-((2-morpholinoethyl)amino)-1,4-dihydropyrimido[4,5-d]pyrimidin-3(2H)-yl)phenyl)-3-(trifluoromethyl)benzamide], the IC50 with Wt-BaF3 was found to be 6.3 µM; in the assay on BaF3-NRASD12, 3.29 µM; with BaF3-KRASD12, 3.44 µM. Also, the GI50 at BaF3-BCR/ABL turned out to be 1.72 µM; on BaF3-BCR/ABL-T315I, 2.92 µM; at BaF3-TEL-TIE1, 3.24 µM; at BaF3-TEL-LYN it was 2.14 µM; on BaF3-EML4-ALK, 4.05 µM.
For `Cc1ccc(Nc2ncc3c(n2)N(C)CN(c2cc(C(=O)NCCO)ccc2C)C3)cn1` [IC-2, N-(2-hydroxyethyl)-4-methyl-3-(1-methyl-7-((6-methylpyridin-3-yl)amino)-1,4-dihydropyrimido[4,5-d]pyrimidin-3(2H)-yl)benzamide], the IC50 in the assay with Wt-BaF3, in the assay on BaF3-NRASD12 and with BaF3-KRASD12 was over 10 µM each time. Further, the GI50 was 6.36 µM at BaF3-BCR/ABL; over 10 µM at BaF3-BCR/ABL-T315I; over 10 µM at BaF3-TEL-TIE1; over 10 µM at BaF3-TEL-LYN; over 10 µM on BaF3-EML4-ALK.
Consider `Cc1ccc(NC(=O)c2cccc(C(F)(F)F)c2)cc1N1Cc2cnc(Nc3ccc(N4CCN(C)CC4)nc3)nc2N(C)C1` [IA-14, N-(4-methyl-3-(1-methyl-7-((6-(4-methylpiperazin-1-yl)pyridin-3-yl)amino)-1,4-dihydropyrimido[4,5-d]pyrimidin-3(2H)-yl)phenyl)-3-(trifluoromethyl)benzamide], for which the half-maximal inhibitory concentration (IC50) was determined as 3.67 µM with Wt-BaF3, 1.53 µM in the assay with BaF3-NRASD12 and 1.46 µM with BaF3-KRASD12.
On to `Cc1ccc(NC(=O)c2cccc(C(F)(F)F)c2)cc1N1Cc2cnc(NC3CC3)nc2N(C)C1` [IA-4, N-(3-(7-(cyclopropylamino)-1-methyl-1,4-dihydropyrimido[4,5-d]pyrimidin-3(2H)-yl)-4-methylphenyl)-3-(trifluoromethyl)benzamide], for which the 50% inhibitory concentration (IC50) with Wt-BaF3 turned out to be 11.3 µM; with BaF3-NRASD12 it was 9.56 µM; in the assay on BaF3-KRASD12, 8.33 µM. Further, the GI50 on BaF3-BCR/ABL was 0.956 µM; on BaF3-BCR/ABL-T315I it was 9.72 µM; at BaF3-TEL-TIE1 it was 4.97 µM; at BaF3-TEL-LYN, 1.32 µM; at BaF3-EML4-ALK, 6.79 µM.
As for `COc1ccc(NC(=O)c2cccc(C(F)(F)F)c2)cc1N1Cc2cnc(Nc3ccc(C)nc3)nc2N(C)C1` [IC-6, N-(4-methoxy-3-(1-methyl-7-((6-methylpyridin-3-yl)amino)-1,4-dihydropyrimido[4,5-d]pyrimidin-3(2H)-yl)phenyl)-3-(trifluoromethyl)benzamide], the IC50 is 22.8 µM with Wt-BaF3, 8.15 µM with BaF3-NRASD12 and 10.3 µM in the assay with BaF3-KRASD12. In addition, the GI50 on BaF3-BCR/ABL is 0.387 µM; at BaF3-BCR/ABL-T315I, 8 µM; on BaF3-TEL-TIE1 it was 5.18 µM; on BaF3-TEL-LYN, about 8.23 µM; at BaF3-EML4-ALK, about 9.03 µM.
